The test deals with Sodium channel protein type 10 subunit alpha (Homo sapiens, UniProt Q9Y5Y9). Put plainly: Inhibition of human Nav1.8 channel stably expressed in HEK293 cells assessed as sodium current flow at holding potential of -90mV by whole-cell voltage clamp assay. The class given is cell-based.
Sequence of Sodium channel protein type 10 subunit alpha (Q9Y5Y9 whole entry, looked up): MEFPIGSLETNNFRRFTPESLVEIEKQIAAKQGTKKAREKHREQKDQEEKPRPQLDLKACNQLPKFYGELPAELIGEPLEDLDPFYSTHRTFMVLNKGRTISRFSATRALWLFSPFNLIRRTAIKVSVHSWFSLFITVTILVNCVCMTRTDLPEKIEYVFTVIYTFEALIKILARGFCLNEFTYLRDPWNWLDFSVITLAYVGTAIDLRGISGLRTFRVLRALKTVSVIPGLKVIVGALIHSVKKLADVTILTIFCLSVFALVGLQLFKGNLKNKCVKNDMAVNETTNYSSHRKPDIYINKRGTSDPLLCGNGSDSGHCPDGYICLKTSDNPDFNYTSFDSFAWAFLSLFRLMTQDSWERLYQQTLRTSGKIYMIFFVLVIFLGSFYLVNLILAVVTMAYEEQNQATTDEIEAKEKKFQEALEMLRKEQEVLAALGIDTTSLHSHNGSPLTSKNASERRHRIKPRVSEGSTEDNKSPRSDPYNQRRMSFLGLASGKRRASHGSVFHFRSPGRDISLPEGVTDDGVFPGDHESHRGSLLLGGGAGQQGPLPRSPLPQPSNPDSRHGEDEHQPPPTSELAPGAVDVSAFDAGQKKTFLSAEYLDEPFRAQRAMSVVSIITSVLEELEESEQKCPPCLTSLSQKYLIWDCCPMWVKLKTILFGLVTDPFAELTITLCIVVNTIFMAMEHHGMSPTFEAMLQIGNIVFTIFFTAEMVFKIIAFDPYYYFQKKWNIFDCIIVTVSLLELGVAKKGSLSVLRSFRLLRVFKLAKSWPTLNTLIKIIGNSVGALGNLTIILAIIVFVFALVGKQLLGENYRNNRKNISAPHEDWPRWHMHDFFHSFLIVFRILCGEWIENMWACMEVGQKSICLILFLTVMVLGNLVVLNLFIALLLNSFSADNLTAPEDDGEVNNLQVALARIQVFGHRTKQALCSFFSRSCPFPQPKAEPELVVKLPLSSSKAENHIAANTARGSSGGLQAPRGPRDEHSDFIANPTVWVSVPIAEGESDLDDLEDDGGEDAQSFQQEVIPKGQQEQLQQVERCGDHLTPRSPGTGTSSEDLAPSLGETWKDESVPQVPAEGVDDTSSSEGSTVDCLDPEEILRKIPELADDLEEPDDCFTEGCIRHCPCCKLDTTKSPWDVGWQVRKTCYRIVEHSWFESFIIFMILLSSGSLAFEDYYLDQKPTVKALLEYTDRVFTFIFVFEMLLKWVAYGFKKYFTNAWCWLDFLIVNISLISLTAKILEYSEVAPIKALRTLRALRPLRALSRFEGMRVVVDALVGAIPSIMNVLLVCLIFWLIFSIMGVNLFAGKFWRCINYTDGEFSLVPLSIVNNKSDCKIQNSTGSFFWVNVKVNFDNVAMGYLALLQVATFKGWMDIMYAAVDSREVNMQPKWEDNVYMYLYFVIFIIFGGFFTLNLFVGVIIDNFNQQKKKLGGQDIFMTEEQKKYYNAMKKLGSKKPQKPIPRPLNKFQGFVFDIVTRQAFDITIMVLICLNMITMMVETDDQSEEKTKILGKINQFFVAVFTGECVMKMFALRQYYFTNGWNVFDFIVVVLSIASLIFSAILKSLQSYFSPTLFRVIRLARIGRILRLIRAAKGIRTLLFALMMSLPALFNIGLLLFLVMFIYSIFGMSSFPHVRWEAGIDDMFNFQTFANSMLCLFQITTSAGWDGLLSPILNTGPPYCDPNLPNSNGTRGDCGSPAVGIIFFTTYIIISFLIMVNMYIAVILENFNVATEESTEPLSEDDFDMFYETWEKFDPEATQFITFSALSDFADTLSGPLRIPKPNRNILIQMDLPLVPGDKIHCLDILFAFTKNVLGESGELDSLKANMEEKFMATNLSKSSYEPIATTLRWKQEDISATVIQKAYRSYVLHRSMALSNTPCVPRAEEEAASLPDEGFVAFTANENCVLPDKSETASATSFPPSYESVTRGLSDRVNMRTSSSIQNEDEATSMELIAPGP
Turning to `O=C1C[C@H](C(=O)NC(c2ccc(Cl)cc2)c2ccc(Cl)c(C(F)(F)F)c2)CN1` (stereo partly specified), the half-maximal inhibitory concentration (IC50) turned out to be 1.2 nM.

Regarding `O=C1C[C@H](C(=O)NC(c2ccc(Cl)cc2)c2ccc(OC(F)(F)F)cc2)CN1` (stereo partly specified), the concentration for half-maximal inhibition (IC50) stood at 4.1 nM.

Turning to `O=C1C[C@H](C(=O)NC(c2ccc(F)c(Cl)c2)c2ccc(F)c(C(F)(F)F)n2)CN1` (stereo partly specified), the IC50 was found to be 2.9 nM.

On to `O=C1C[C@H](C(=O)NC(c2ccc(Cl)cc2)c2ccc(F)c(Cl)c2)CN1` (stereo partly specified), for which the IC50 was 3.4 nM.

Take `O=C1C[C@H](C(=O)NC(c2ccc(Cl)cc2)c2ccc(F)c(C(F)(F)F)c2)CN1` (stereo partly specified): the IC50 is 2.6 nM.

With `O=C1C[C@H](C(=O)NC(c2cnc(C(F)(F)F)c(Cl)c2)c2ccc(F)c(Cl)c2F)CN1` (stereo partly specified), the IC50 was determined as 4.2 nM.

A word on the IC50: it is the point on the concentration scale where inhibition reaches its midpoint.

The record behind these values is ChEMBL document CHEMBL5131530, “5-Oxopyrrolidine-3-carboxamides as Nav1.8 Inhibitors for Treating Pain Disorders, Cough Disorders, and Acute and Chronic Itch Disorders” (ACS Med Chem Lett, 2022).
